Read-outs that look alike come from different tables or passages of the source.
What was measured:
[1] = test system: Phytophthora infestans; assay: whole plant or invertebrate; assay type: in vivo; details: in Solanum lycopersicum, 120 h, read-out: % efficacy
[2] = pH 2.7, LogP, HPLC on reversed phase columns, pH 2.7, 0.1% formic acid in water / acetonitrile gradient

Row | Compound | pest or weed control at 500 ppm [1] | chromatographic logP [2] | chromatographic logP ([2]; compounds of formula (V), Table 2)
1 | CCCCC(=O)Nc1cccc(CON=C(c2ccccc2)c2nc(=O)on2C)n1 [Example 12] | 100% | 2.9 | 
2 | Cc1cccc(C(=NOCc2cccc(NC(=O)OC(C)(C)C)n2)c2nc(=O)on2C)c1 [Example 21] | 100% | 3.65 | 
3 | Cn1oc(=O)nc1C(=NOCc1cccc(N)n1)c1cccc(F)c1 [Example 23] | 98% | 0.99 | 
4 | Cn1oc(=O)nc1C(=NOCc1cccc(NC(=O)OC2CCCCC2)n1)c1ccccc1 [Example 26] | 99% | 3.81 | 
5 | COc1cccc(C(=NOCc2cccc(NC(=O)OC3CCCCC3)n2)c2nc(=O)on2C)c1 [Example 28] | 78% | 3.85 | 
6 | Cc1cccc(C(=NOCc2cccc(NC(=O)OC3CCCCC3)n2)c2nc(=O)on2C)c1 [Example 30] | 78% | 4.11 | 
7 | Cc1cccc(C(=NOCc2cccc(N)n2)c2nc(=O)on2C)c1 [Example 31] | 93% | 1.17 | 
8 | Cn1oc(=O)nc1C(=NOCc1cccc(NC(=O)OC2CCCCC2)n1)c1cccc(F)c1 [Example 33] | 100% | 3.92 | 
9 | CCCCSC(=S)Nc1cccc(CON=C(c2ccccc2)c2nc(=O)on2C)n1 [Example 38] | 93% | 4.15 | 
10 | Cn1oc(=O)nc1C(=NOCc1cccc(NC(=O)SC(C)(C)C)n1)c1ccccc1 [Example 39] | 99% | 3.73 | 
11 | CCn1oc(=O)nc1/C(=N\OCc1cccc(NC(=O)OC(C)(C)C)n1)c1ccccc1 [Example 40, tert-butyl {6-[({[(Z)-(2-ethyl-5-oxo-2,5-dihydro-1,2,4-oxadiazol-3-yl)(phenyl)methylene]amino}oxy)methyl]pyridin-2-yl}carbamate] | 73% | 3.58 | 
12 | CCCCOC(=S)Nc1cccc(CON=C(c2ccccc2)c2nc(=O)on2C)n1 [Example 43] | 99% | 3.89 | 
13 | COc1ccc(CC(=O)Nc2cccc(CON=C(c3cccc(OC)c3)c3nc(=O)o[nH]3)n2)cc1 [Example 48] | 100% | 2.98 | 
14 | CCCCCCC(=O)Nc1cccc(CON=C(c2cccc(OC)c2)c2nc(=O)o[nH]2)n1 [Example 50] | 100% | 3.71 | 
15 | CCCCCOC(=O)Nc1cccc(CON=C(c2cccc(C)c2)c2nc(=O)on2C)n1 [Example 56] | 83% | 4.11 | 
16 | Cc1cccc(C(=NOCc2cccc(NC(=O)C(C)(C)C)n2)c2nc(=O)on2C)c1 [Example 57] | 75% | 3.17 | 
17 | CCCCOC(=O)Nc1cccc(CON=C(c2cccc(C)c2)c2nc(=O)on2C)n1 [Example 58] | 75% | 3.69 | 
18 | CCCCCC(=O)Nc1cccc(CON=C(c2cccc(C)c2)c2nc(=O)on2C)n1 [Example 59] | 90% | 3.58 | 
19 | CCCCC(=O)Nc1cccc(CON=C(c2cccc(C)c2)c2nc(=O)on2C)n1 [Example 60] | 89% | 3.19 | 
20 | COc1cccc(C(=O)Nc2cccc(CON=C(c3cccc(OC)c3)c3nc(=O)o[nH]3)n2)c1 [Example 63] | 80% | 3.06 | 
21 | COc1cccc(C(=O)Nc2cccc(CON=C(c3cccc(F)c3)c3nc(=O)o[nH]3)n2)c1 [Example 64] | 85% | 3.13 | 
22 | CC#CCOC(=O)Nc1cccc(CON=C(c2cccc(F)c2)c2nc(=O)o[nH]2)n1 [Example 65] | 100% | 2.94 | 
23 | CCCCOC(=O)Nc1cccc(CON=C(c2cccc(OC)c2)c2nc(=O)o[nH]2)n1 [Example 66] | 70% | 3.42 | 
24 | CCCCCC(=O)Nc1cccc(CON=C(c2cccc(F)c2)c2nc(=O)o[nH]2)n1 [Example 68] | 98% | 3.37 | 
25 | CCCCCOC(=O)Nc1cccc(CON=C(c2cccc(F)c2)c2nc(=O)o[nH]2)n1 [Example 69] | 100% | 3.89 | 
26 | CCCCCCC(=O)Nc1cccc(CON=C(c2cccc(F)c2)c2nc(=O)o[nH]2)n1 [Example 70] | 80% | 3.76 | 

Row | Compound | pest or weed control at 500 ppm [1] | chromatographic logP [2] | chromatographic logP ([2]; compounds of formula (V), Table 2)
27 | CCCCOC(=O)Nc1cccc(CON=C(c2cccc(F)c2)c2nc(=O)o[nH]2)n1 [Example 71] | 95% | 3.48 | 
28 | CCCCC(=O)Nc1cccc(CON=C(c2cccc(F)c2)c2nc(=O)o[nH]2)n1 [Example 72] | 85% | 2.98 | 
29 | COc1ccc(CC(=O)Nc2cccc(CON=C(c3cccc(F)c3)c3nc(=O)o[nH]3)n2)cc1 [Example 73] | 95% | 3 | 
30 | O=C(Cc1cccc(F)c1)Nc1cccc(CON=C(c2cccc(F)c2)c2nc(=O)o[nH]2)n1 [Example 74] | 85% | 3.13 | 
31 | Cc1cccc(C(=O)Nc2cccc(CON=C(c3cccc(F)c3)c3nc(=O)o[nH]3)n2)c1 [Example 75] | 98% | 3.35 | 
32 | O=C(Cc1ccccc1)Nc1cccc(CON=C(c2cccc(F)c2)c2nc(=O)o[nH]2)n1 [Example 76] | 90% | 3.04 | 
33 | CCCCCCC(=O)Nc1cccc(CON=C(c2cccc(C)c2)c2nc(=O)on2C)n1 [Example 78] | 70% | 3.96 | 
34 | Cc1ccc(C(=O)Nc2cccc(CON=C(c3cccc(C)c3)c3nc(=O)on3C)n2)cc1 [Example 80] | 80% | 3.53 | 
35 | Cc1cccc(C(=NOCc2cccc(NC(=O)c3ccccc3)n2)c2nc(=O)on2C)c1 [Example 82] | 75% | 3.21 | 
36 | C#CCC(C)OC(=O)Nc1cccc(CON=C(c2cccc(C)c2)c2nc(=O)on2C)n1 (stereo not shown) [Example 83] | 94% | 3.25 | 
37 | C#CCCOC(=O)Nc1cccc(CON=C(c2cccc(C)c2)c2nc(=O)on2C)n1 [Example 84] | 100% | 2.96 | 
38 | Cc1cccc(C(=NOCc2cccc(NC(=O)CC(C)C)n2)c2nc(=O)on2C)c1 [Example 85] | 100% | 3.13 | 
39 | Cc1cccc(C(=NOCc2cccc(NC(=O)c3ccc(F)cc3)n2)c2nc(=O)on2C)c1 [Example 87] | 75% | 3.33 | 
40 | C#CCC(C)OC(=O)Nc1cccc(CON=C(c2cccc(OC)c2)c2nc(=O)on2C)n1 (stereo not shown) [Example 94] | 85% | 3.02 | 
41 | C#CCCOC(=O)Nc1cccc(CON=C(c2cccc(OC)c2)c2nc(=O)on2C)n1 [Example 96] | 90% | 2.75 | 
42 | CC(Oc1ccccc1)C(=O)Nc1cccc(CON=C(c2cccc(F)c2)c2nc(=O)on2C)n1 (stereo not shown) [Example 97] | 70% | 3.44 | 
43 | C#CCC(C)OC(=O)Nc1cccc(CON=C(c2cccc(F)c2)c2nc(=O)on2C)n1 (stereo not shown) [Example 99] | 100% | 3.09 | 
44 | COc1ccc(CC(=O)Nc2cccc(CON=C(c3cccc(C)c3)c3nc(=O)on3C)n2)cc1 [Example 100] | 100% | 3.19 | 
45 | COc1cccc(C(=NOCc2cccc(NC(=O)OCCC(C)C)n2)c2nc(=O)on2C)c1 [Example 101] | 70% | 3.78 | 
46 | CCCCCOC(=O)Nc1cccc(CON=C(c2cccc(OC)c2)c2nc(=O)on2C)n1 [Example 102] | 98% | 3.83 | 
47 | Cc1cccc(C(=NOCc2cccc(NC(=O)C(C)Oc3ccccc3)n2)c2nc(=O)on2C)c1 (stereo not shown) [Example 103] | 80% | 3.64 | 
48 | COc1cccc(C(=NOCc2cccc(NC(=O)OCc3ccccc3)n2)c2nc(=O)on2C)c1 [Example 104] | 88% | 3.42 | 
49 | COc1cccc(C(=NOCc2cccc(NC(=O)Cc3cccc(F)c3)n2)c2nc(=O)on2C)c1 [Example 105] | 75% | 3.09 | 
50 | COc1cccc(C(=NOCc2cccc(NC(=O)c3ccc(C)cc3)n2)c2nc(=O)on2C)c1 [Example 106] | 90% | 3.27 | 
51 | CC#CCOC(=O)Nc1cccc(CON=C(c2cccc(C)c2)c2nc(=O)on2C)n1 [Example 107] | 93% | 3.13 | 
52 | CN(O)C(=N)/C(=N\OCc1cccc(Br)n1)c1ccccc1 [Example V-12, (2Z)-2-{[(6-bromopyridin-2-yl)methoxy]imino}-N-hydroxy-N-methyl-2-phenylethanimidamide] |  |  | 1.39

— patent US9556158B2, “Fungicidal 3-[(pyridin-2-ylmethoxyimino)(phenyl)methyl]-2-substituted-1,2,4-oxadiazol-5(2H)-one derivatives” (BAYER INTELLECTUAL PROPERTY GMBH, priority 2011, dated 2017)
